Data: patent US7662842B2, “Thiazolidinone amides, thiazolidine carboxylic acid amides, and serine amides, including polyamine conjugates thereof, as selective anti-cancer agents” (Ohio State Univesity Research Foundation, priority 2003, dated 2010)

Legend:
SKMEL-188 melanoma cells = experiment: Sulforhodamine B assay in melanoma cells, SKMEL-188; format: cell-based; settings: SK-MEL-188, 48 h, SRB assay, 48 h incubation; melanoma cell line
Experimental: (§1) SKMEL-188 cells were cultured in Ham's F10 medium (Gibco Invitrogen, Inc., Grand Island, N.Y.) plus 5% fetal bovine serum (Cellgro Mediatech, Inc., Herndon, Va.) and 1% antibiotic/antimycotic mixture (Sigma-Aldrich, Inc., St. Louis, Mo.). WM-164 cells (gift of Dr. Meenhard Herlyn, Wistar Inst., Philadelphia, Pa.) and human dermal fibroblasts (Cascade Biologics, Inc., Portland, Oreg.) were cultured in DMEM medium (Cellgro Mediatech, Inc.) supplemented with 5% fetal bovine serum, 1% antibiotic.antimycotic mixture and bovine insulin ([…], Sigma-Aldrich, Inc.). Human dermal fibroblasts were used as a control to examine the effects of compounds on stromal environment. Thus, the effect of the various compounds on melanoma cells versus fibroblasts would document their potential selectivity.
(§2) Sulforhodamine B Assay: Cells were seeded into 96-well plates at 5000 cells/well. After 12 hours, media were changed and serial dilutions of compounds were added. Cells were incubated with each compound for 48 hours. Fresh media containing the test compound were changed ever 24 hours. Thereafter, total cell protein corresponding to cell numbers (both viable and non-viable cells) were measured using the sulforhodamine B (SRB) assay according to manufacturer's protocol (Sigma-Aldrich, Inc.) (Rubinstein et al., “Comparison of in vitro Anticancer Drug-screening Data Generated with a Tetrazolium Assay Versus a Protein Assay Against a Diverse Panel of Human Tumor Cell Lines,” J. Natl. Cancer Inst. 82:1113-1118 (1990); Dothager et al., “Synthesis and Identification of Small Molecules that Potently Induce Apoptosis in Melanoma Cells Through GI Cell Cycle Arrest,” J. Am. Chem. Soc. 127:8686-8696 (2005), each of which is hereby incorporated by reference in its entirety). Briefly, cells were fixed with trichloracetic acid, washed and incubated with sulforhodamine B for 30 minutes. After another wash, dye incorporated into the cells was solubilized and measured using a plate reader at 565 nm.
(§3) Statistical Analysis: Data is presented as mean±SEM (n=6-8). […] Statistical analyses were performed with Student's t-test (*p<0.05; **p<0.005).
(§4) DTIC and Taxol were assayed in the same way for comparison and served as internal quality controls in the different batches of assay. For comparison, the activities of 5R and 5S were measured.

human dermal fibroblasts = experiment: Sulforhodamine B assay, fibroblast control cells; format: cell-based; settings: Homo sapiens, Fibroblast, 48 h, SRB assay, 48 h incubation
Experimental: as §1, §2, §3, §4

WM-164 cells = experiment: Sulforhodamine B assay in melanoma cells, WM-164; format: cell-based; settings: Homo sapiens, WM164, read-out: IC50 WM-164; SRB assay, 48 h incubation; melanoma cell line
Experimental: as §1, §2, §3, §4

LNCaP cells [1] = experiment: DNA fragmentation by agarose gel electrophoresis; format: cell-based, human; settings: treatment for 24 to […], 3-50 μM, FIGS. 4A-B
Experimental: In FIG. 4B, the dose and exposure time are indicated for compound 5 as follows: lane 1, 100 bp DNA marker; lane 2, 5 μM for 24 h; lane 3, 5 μM for 48 h; lane 4, 5 μM for 72 h; lane 5, 5 μM for 96 h; lane 6, 3 μM for 96 h; lane 7, 8 μM for 48 h; and lane 8, 8 μM for 72 h.

PC-3 cells = experiment: Apoptosis sandwich ELISA (DNA-histone complex), PC-3; format: cell-based, human
Experimental: (§5) For in vitro cytotoxicity screening, 1000 to 5000 cells were plated into each well of 96-well plates depending on growth rate, and exposed to different concentrations of a test compound for 96 h in three to five replicates. All the compounds were dissolved in dimethyl sulfoxide at 5 to 20 mM, and diluted to desired concentrations in complete culture medium. Cell numbers at the end of the drug treatment were measured by the SRB assay (Gududuru et al., “Synthesis and Biological Evaluation of Novel Cytotoxic Phospholipids for Prostate Cancer,” Bioorg. Med. Chem. Lett. 14:4919-4923 (2004); Rubinstein et al., “Comparison of in vitro Anticancer-Drug-Screening Data Generated with a Tetrazolium Assay Versus a Protein Assay Against a Diverse Panel of Human Tumor Cell Lines,” J. Natl. Cancer Inst. 82:1113-1118 (1990), each of which is hereby incorporated by reference in its entirety). Briefly, the cells were fixed with 10% of trichloroacetic acid, stained with 0.4% SRB, and the absorbances at 540 nm was measured using a plate reader (DYNEX Technologies, Chantilly, Va.). […] A sandwich ELISA (Roche, Mannheim, Germany) utilizing monoclonal antibodies specific for DNA and histones was used to quantify degree of apoptosis induced by the analogs after 72 h exposure. This assay measures DNA-histone complexes (mono- and oligonucleosomes) released into cytoplasm from the nucleus during apoptosis. RH7777 cells were employed because of nonspecific cytotoxicity of compound 4 in receptor-negative cells as well as receptor-positive prostate cancer cells.
(§6) From the LPL receptor mRNA expression studies (Table 2), it was evident that these cell lines serve as an excellent model system to explore the effects of LPL receptor. Given the structural similarity of SAPs to ceramide (and the known ability of ceramide to induce apoptosis), it was then determined whether the antiproliferative effects of thiazolidine analogs were mediated via apoptotic events. The ability of the analogs to induce apoptosis in LNCaP, PC-3, and RH7777 cells was examined using a quantitative sandwich ELISA that measures DNA-histone complex released during apoptosis. The enrichment factor calculated (as ratio of OD405 in treated and un-treated cells) provides a quantitative assessment of the degree of apoptosis induced. Initially, only two compounds (4 & 5) were used for this study. Apoptotic activity of analog (compound 4) was selective in prostate cancer cells despite nonselective cytotoxicity in RH7777 negative control cells (see Table 5 below). Analog compound 5 induced apoptosis in PC-3 and LNCaP cells, but to a lesser extent in PC-3 cells perhaps due to lower potency in this cell line.

LNCaP cells [2] = experiment: Apoptosis sandwich ELISA (DNA-histone complex), LNCaP; format: cell-based, human
Experimental: as §5, §6

[3] = tested on: OVCAR-3 human ovarian cancer cell line; experiment: SRB cytotoxicity assay, OVCAR-3; format: cell-based
Experimental: as §5
(§7) In vitro cytotoxicity assay was performed by the same sulforhodamine B (SRB) assay (described above). The compounds shown in Table 8 below where tested for activity against the breast cancer and ovarian cancer cell lines.

[4] = tested on: TSU-Pr1 human prostate cancer cells; experiment: SRB cytotoxicity assay, TSU-Pr1; format: cell-based; settings: Homo sapiens, TSU-Pr1, 96 h exposure, prostate cancer cell line
Experimental: (§8) Dr. Mitchell Steiner at University of Tennessee Health Science Center, kindly provided PPC-1 and TSU-Pr1 cells.
(§9) For in vitro cytotoxicity screening, 1000 to 5000 cells were plated into each well of 96-well plates depending on growth rate, and exposed to different concentrations of a test compound for 96 h in three to five replicates. All the compounds were dissolved in dimethyl sulfoxide at 5 to 20 mM, and diluted to desired concentrations in complete culture medium. Cell numbers at the end of the drug treatment were measured by the SRB assay (Gududuru et al., “Synthesis and Biological Evaluation of Novel Cytotoxic Phospholipids for Prostate Cancer,” Bioorg. Med. Chem. Lett. 14:4919-4923 (2004); Rubinstein et al., “Comparison of in vitro Anticancer-Drug-Screening Data Generated with a Tetrazolium Assay Versus a Protein Assay Against a Diverse Panel of Human Tumor Cell Lines,” J. Natl. Cancer Inst. 82:1113-1118 (1990), each of which is hereby incorporated by reference in its entirety). Briefly, the cells were fixed with 10% of trichloroacetic acid, stained with 0.4% SRB, and the absorbances at 540 nm was measured using a plate reader (DYNEX Technologies, Chantilly, Va.). […] A sandwich ELISA (Roche, Mannheim, Germany) utilizing monoclonal antibodies specific for DNA and histones was used to quantify degree of apoptosis induced by the analogs after 72 h exposure. This assay measures DNA-histone complexes (mono- and oligonucleosomes) released into cytoplasm from the nucleus during apoptosis.

[5] = tested on: LNCaP human prostate cancer cells; experiment: SRB cytotoxicity assay, LNCaP; format: cell-based; settings: Homo sapiens, LNCaP, 96 h exposure, prostate cancer cell line
Experimental: as §9

[6] = tested on: DU-145 human prostate cancer cells; experiment: SRB cytotoxicity assay, DU-145; format: cell-based; settings: Homo sapiens, DU-145, read-out: IC50 DU-145, 96 h exposure, prostate cancer cell line
Experimental: as §9

[7] = tested on: SKOv-3 human ovarian cancer cell line; experiment: SRB cytotoxicity assay, SKOv-3; format: cell-based; settings: SK-OV-3
Experimental: as §5, §7

[8] = tested on: CaOv-3 human ovarian cancer cell line; experiment: SRB cytotoxicity assay, CaOv-3; format: cell-based
Experimental: as §5, §7

[9] = tested on: RH7777 rat hepatoma cells; experiment: SRB cytotoxicity assay, RH7777 control cell line; format: cell-based; settings: for IC50: Rattus norvegicus, RH7777, SRB assay, 96 h exposure, control cell line
Experimental: as §9

[10] = tested on: PPC-1 human prostate cancer cells; experiment: SRB cytotoxicity assay, PPC-1; format: cell-based; settings: Homo sapiens, PPC-1, 96 h exposure, prostate cancer cell line
Experimental: as §8, §9

[11] = tested on: PC-3 human prostate cancer cells; experiment: SRB cytotoxicity assay, PC-3; format: cell-based; settings: Homo sapiens, 96 h exposure, prostate cancer cell line
Experimental: as §9

CCCCCCCCCCCCCCCCCCNC(=O)[C@@H]1CSC(c2ccccc2)N1.Cl (mixture of isomers) [Compound 5, (2RS, 4R)-2-Phenylthiazolidine-4-carboxylic acid octadecylamide Hydrochloride]
IC50 (SKMEL-188 melanoma cells): 39.6 µM | IC50 (human dermal fibroblasts): > 50 µM | IC50 (WM-164 cells): > 50 µM | DNA fragmentation (apoptosis) in LNCaP cells (LNCaP cells [1]): induce cell apoptosis

CCCCCCCCCCCCCCCCCCNC(=O)[C@H]1CSC(c2ccccc2)N1 (stereo partly drawn) [5(S), (4S)—N-octadecyl-2-phenylthiazolidine-4-carboxamide]
IC50 (SKMEL-188 melanoma cells): 24 µM | IC50 (human dermal fibroblasts): 27.5 µM | IC50 (WM-164 cells): 18.1 µM | Apoptosis enrichment factor (ratio of OD405 in treated and un-treated cells), PC-3 (PC-3 cells; 2 μM for 72 h): 1.1 | Apoptosis enrichment factor (ratio of OD405 in treated and un-treated cells), PC-3 (PC-3 cells; 5 μM for 72 h): 1.2 | Apoptosis enrichment factor (ratio of OD405 in treated and un-treated cells), PC-3 (PC-3 cells; 10 μM for 72 h): 1.4 | Apoptosis enrichment factor (ratio of OD405 in treated and un-treated cells), PC-3 (PC-3 cells; 20 μM for 72 h): 2.7 | Apoptosis enrichment factor (ratio of OD405 in treated and un-treated cells), LNCaP (LNCaP cells [2]; 2 μM for 72 h): 3.1 | Apoptosis enrichment factor (ratio of OD405 in treated and un-treated cells), LNCaP (LNCaP cells [2]; 5 μM for 72 h): 5.4 | Apoptosis enrichment factor (ratio of OD405 in treated and un-treated cells), LNCaP (LNCaP cells [2]; 10 μM for 72 h): 25.8 | Apoptosis enrichment factor (ratio of OD405 in treated and un-treated cells), LNCaP (LNCaP cells [2]; 20 μM for 72 h): 46.8 | Induction of apoptosis in LNCaP and PC-3 cells (LNCaP cells [2]; LNCaP and PC-3 cells, lesser extent in PC-3): significantly induced apoptosis

CCCCCCCCCCCCCCCCCCNC(=O)[C@@H]1CSC(c2cccc(O)c2)N1 (mixture of isomers) [Compound 14, (2RS, 4R)-2-(3-Hydroxy-phenyl)-thiazolidine-4-carboxylic acid octadecylamide]
IC50 [3]: 8.1 µM | IC50 [4]: 4 µM | IC50 [5]: 1.7 µM | melting point: 50 °C | IC50 [6]: 5.7 µM | IC50 [7]: 11 µM | IC50 [8]: 18.3 µM | IC50 [9]: 31 µM | IC50 [10]: 1.2 µM | IC50 [11]: 6.7 µM

CCCCCCCCCCCCCCCCCCNC(=O)C1CSC(c2ccoc2)N1 (stereo not drawn) [Compound 12, 2-(furan-3-yl)-N-octadecylthiazolidine-4-carboxamide]
IC50 [3]: 2.3 µM | IC50 [4]: 4.2 µM | IC50 [5]: 1.7 µM | IC50 [6]: 6.6 µM | IC50 [7]: 5.4 µM | IC50 [8]: 7.7 µM | IC50 [9]: 10.4 µM | Fold less selective against RH7777 cell line than compound 5 ([9]; relative to compound 5): 3 fold | IC50 [10]: 1.1 µM | IC50 [11]: 8.1 µM

CCCCCCCCCCCCCCCCCCNC(=O)[C@@H]1CSC(c2ccc(OC)c(OC)c2)N1.Cl (mixture of isomers) [Compound 16, (2RS, 4R)-2-(3,4-Dimethoxy-phenyl)-thiazolidine-4-carboxylic acid octadecylamide Hydrochloride]
IC50 [3]: 1.2 µM | IC50 [4]: 2.4 µM | IC50 [5]: 0.85 µM | IC50 (SKMEL-188 melanoma cells): 2.4 µM | IC50 (human dermal fibroblasts): > 10 µM | IC50 (WM-164 cells): 3.1 µM | melting point: 103 °C | IC50 [6]: 4.5 µM | IC50 [7]: 3.6 µM | IC50 [8]: 5.5 µM | IC50 [9]: 10.3 µM | IC50 [10]: 0.58 µM
